The record followed here is patent US4497742A, “Isomerization of β-lactam compounds” (Takeda Chemical Industries, Ltd., priority 1981, dated 1985).

Where a name gives a salt, the structure may show the parent alone. Read-outs that look alike come from different tables or passages of the source.

Test [1] deals with Staphylococcus aureus FDA 209P. Description: Antimicrobial spectrum (MIC), Staphylococcus aureus FDA 209P. Type of test: cell-based. To be noted: FDA209P.
For test [2], the target named is T1, beta-Lactamase (Staphylococcus aureus, UniProt P00807).
T1 construct: endogenous in cells; host or cells: Staphylococcus aureus 1840 (producing strain)
Description: beta-Lactamase-inhibitory activity, producing strain Staphylococcus aureus 1840. Type of test: biochemical. Conditions: read-out: beta-Lactamase-inhibitory activity [1D50] (converted).

Test [3] deals with beta-Lactamase. The experiment in a line: beta-Lactamase-inhibitory activity, producing strain Escherichia coli TN 713. Type of test: biochemical.
Test [4] addresses T2, beta-Lactamase (Enterobacter cloacae, UniProt P05364).
T2 construct: endogenous in cells; host or cells: Enterobacter cloacae TN 1282 (producing strain)
Description: beta-Lactamase-inhibitory activity, producing strain Enterobacter cloacae TN 1282. Conditions: read-out: beta-Lactamase-inhibitory activity [1D50] (converted). Type of test: biochemical.

The target in test [5] is beta-Lactamase. The experiment in a line: beta-Lactamase-inhibitory activity, producing strain Proteus vulgaris GN 4413. Type of test: biochemical.
The subject of test [6] is Escherichia coli NIHJ J2C. The experiment in a line: Antimicrobial spectrum (MIC), Escherichia coli NIHJ J2C. Type of test: cell-based. Conditions: NIHJJ2C.
Test [7] relates to Proteus vulgaris IFO 3988. Description: Antimicrobial spectrum (MIC), Proteus vulgaris IFO 3988. Type of test: cell-based. Conditions: IFO3988.
The test system of test [8] is Salmonella typhimurium IFO 12529. Description: Antimicrobial spectrum (MIC), Salmonella typhimurium IFO 12529. Type of test: cell-based. Conditions: Salmonella enterica.
Setting [9] is: Proteus vulgaris IFO 3988, read-out: MIC.

T2 sequence (P05364 21-381): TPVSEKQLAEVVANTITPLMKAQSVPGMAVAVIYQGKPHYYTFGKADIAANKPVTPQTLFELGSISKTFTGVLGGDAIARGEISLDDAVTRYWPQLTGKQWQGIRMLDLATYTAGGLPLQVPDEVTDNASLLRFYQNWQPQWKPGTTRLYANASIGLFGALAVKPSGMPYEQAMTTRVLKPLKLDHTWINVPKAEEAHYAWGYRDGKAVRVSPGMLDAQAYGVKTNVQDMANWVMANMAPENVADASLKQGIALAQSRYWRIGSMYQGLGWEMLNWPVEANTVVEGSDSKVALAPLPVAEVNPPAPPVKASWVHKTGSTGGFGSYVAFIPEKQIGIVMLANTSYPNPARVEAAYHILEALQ
T1 sequence (P00807 25-281): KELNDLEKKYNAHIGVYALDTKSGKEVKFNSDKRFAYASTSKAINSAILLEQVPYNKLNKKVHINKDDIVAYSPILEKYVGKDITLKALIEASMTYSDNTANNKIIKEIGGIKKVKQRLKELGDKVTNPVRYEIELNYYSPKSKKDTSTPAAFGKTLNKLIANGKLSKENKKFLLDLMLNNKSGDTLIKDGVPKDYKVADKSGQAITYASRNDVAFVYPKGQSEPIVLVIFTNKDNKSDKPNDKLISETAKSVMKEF

For `CC(=O)N/C=C\[S@@+]([O-])C1=C(C(=O)[O-])N2C(=O)[C@@H](C(C)(C)O)[C@H]2C1.[Na+]` [Ia, sodium [5R, 6R]-3-[(Z)-2-acetamidoethenyl-(R)-sulfinyl]-6-[1-hydroxy-1-methylethyl]-7-oxo-1-azabicyclo(3,2,0)-hept-2-ene-2-carboxylate], in test [1], it took 0.39 µg/mL to inhibit growth (MIC). Further, the IC50 on beta-Lactamase [2] was 151 nM; on beta-Lactamase [4] it was 13.7 nM. In addition, the “beta-Lactamase-inhibitory activity [1D50]” value in the test on beta-Lactamase [3] was 0.0016 µg/mL; on beta-Lactamase [5], 0.00105 µg/mL.

On to `CC(=O)N/C=C\[S@@+]([O-])C1=C(C(=O)O)N2C(=O)[C@@H](C(C)(C)OS(=O)(=O)O)[C@H]2C1` [Ib, [5R, 6R]-3-[(Z)-2-acetamidoethenyl-(R)-sulfinyl]-6-(1-hydroxysulfonyloxy-1-methylethyl)-7-oxo-1-azabicyclo (3,2,0)-hept-2-ene-2-carboxylic acid disodium salt], for which the MIC in test [6] was determined as 20 µg/mL; in test [7] (setting [9]) it was 40 µg/mL; in test [8], 20 µg/mL; in test [1] it was 2.5 µg/mL. Also, the IC50 on beta-Lactamase [2] was 568 nM; on beta-Lactamase [4], 36 nM. For the same compound, the “beta-Lactamase-inhibitory activity [1D50]” value with beta-Lactamase [3] stood at 0.0001175 µg/mL; on beta-Lactamase [5], 0.00055 µg/mL.

In the case of `CC(=O)N/C=C\SC1=C(C(=O)[O-])N2C(=O)[C@@H](C(C)(C)O)[C@H]2C1.[Na+]` [Ig, sodium [5R, 6R]-3-[(Z)-2-acetamidoethenyl-thio]-6-[1-hydroxy-1-methyl-ethyl]-7-oxo-1-azabicyclo(3,2,0)-hept-2-ene-2-carboxylate], the MIC is 2.5 µg/mL in test [6], 5 µg/mL in test [7] (Proteus vulgaris), 2.5 µg/mL in test [8] and 0.625 µg/mL in test [1]. The “beta-Lactamase-inhibitory activity [1D50]” value with beta-Lactamase [3] came out at 0.010 µg/mL; on beta-Lactamase [5], 0.017 µg/mL. On beta-Lactamase [4], the IC50 is 86.1 nM.

For the compound `CC(=O)N/C=C\SC1=C(C(=O)O)N2C(=O)[C@@H](C(C)(C)OS(=O)(=O)O)[C@H]2C1` [Ih, [5R, 6R]-3-[(Z)-2-acetamidoethenyl-thio]-6-[1-hydroxysulfonyloxy-1-methyl-ethyl]-7-oxo-1-azabicyclo(3,2,0)-hept-2-ene-2-carboxylic acid disodium salt], the minimum inhibitory concentration (MIC) in test [6] is 40 µg/mL; in test [7] (setting [9]), below 40 µg/mL; in test [8], 20 µg/mL; in test [1], 2.5 µg/mL. The IC50 is 2460 nM at beta-Lactamase [2] and 7.87 nM at beta-Lactamase [4]. The figures for the “beta-Lactamase-inhibitory activity [1D50]” value with beta-Lactamase [3] and on beta-Lactamase [5] were 0.017 µg/mL and 0.0038 µg/mL, respectively.
